Source: patent US9096543B2, “Nuclear transport modulators and uses thereof” (Karyopharm Therapeutics Inc., priority 2012, dated 2015)

How the values were obtained:
[1] = test system: cytokines GRO/KC, IFNγ, IL-1B, IL-6, IL-10, IL-12p70 and TNFa; test: Plasma cytokine expression after BCCI injury (Luminex); format: in vivo, rats; details: 6 mg/kg
Description: The expression level of several cytokines in plasma harvested from rats in each treatment group was measured. The samples were received frozen and stored at −80° C. On the day of the experiment, the samples were thawed, diluted four-fold, and analyzed for cytokine expression on a Luminex platform. The samples were analyzed for the cytokines GRO/KC, IFNγ, IL-1B, IL-6, IL-10, IL-12p70 and TNFa, using a multipliex kit manufactured by Millipore. […] The biggest change was in IL-10.

[2] = test system: inflammation-related CRM1 cargo proteins: IκB, Nrf2, HMGB1, FoxP3, FOXO1a, RxRα, PPARγ and NFκB (p65 subunit); test: Immunofluorescence of nuclear localization of inflammation-related CRM1 cargos in HeLa and THP-1 cells; format: cell-based, human; details: 1-10 μM Compound 1 with 20 ng/mL TNFα, 4-24 h
Description: HeLa and THP-1 (human acute monocytic leukemia) cells were treated with inflammation inducing factor, TNFα, alone or in combination with 1-10 μM of Compound 1 for 4-24 h, and then were analyzed by immunofluorescence (IF) for the nuclear localization of inflammation-related CRM1 cargo proteins: IκB, Nrf2, HMGB1, FoxP3, FOXO1a, RxRα, PPARγ and NFκB (p65 subunit).
For the detection of IkB, Nrf2, RxRα and PPARγ localization, cells were pre-incubated with 10 μM Compound 1 for 30 minutes, followed by incubation with 20 ng/mL TNFα for 4 hrs in serum free media. For detection of HMGB1, FoxP3 and Foxo1A, cells were pre-incubated with 1 μM of Compound 1 for 2 h, followed by incubation with 20 ng/mL TNFα for 24 hours. […] IκB was detected by the primary rabbit monoclonal (E130) antibody from Abcam (ab32518); Nrf2 was detected by the primary rabbit polyclonal antibody from Santa Cruz (sc722); RxR alpha was detected by the primary rabbit polyclonal antibody from Santa Cruz (sc553); PPAR gamma was detected by the primary rabbit monoclonal […] antibody from Cell Signaling (#2443); Foxo1A was detected by the primary rabbit monoclonal [C29H4] antibody from Cell Signaling (#2880); HMGB1 was detected by the primary rabbit polyclonal antibody from Abcam (ab18256); FoxP3 was detected by the primary rabbit polyclonal antibody from Abeam (ab10563). […]

[3] = test system: Z-138 xenograft tumors; test: Z-138 lymphoma cell line grown as a xenograft in SCID mice; format: in vivo, CB-17 SCID mice
Description: Z-138 (ATCC # CRL-3001) mantle cell lymphoma cells were obtained from ATCC. These cells were grown in IMEM medium supplemented with 10% horse serum, 1% penicillin and streptomycin, and 2 mM L-glutamine. […] Twenty-four (24) female CB-17 SCID mice (Charles River Labs strain code 236), aged 5 to 6 weeks were used. The SCID mice were inoculated in the left flank with Z-138 cells in a volume of 0.2 mL, equivalent to 4×10^7 cells per mouse. […] Mice were allocated to […] prior to the initiation of treatment based on tumor volume such that mean tumor volume in each group was within the range of 77 to 92 mm^3. […] Animals were fed with Labdiet® 5001 rodent chow and sterile water ad libitum. […] Animals with weight loss of more than 20% of their starting weight were euthanized. Mice with weight loss of more than 15% of their starting weight were not treated again until weight loss recovered to less than 5% of their starting weight. Any animals with a tumor volume of more than 1500 mm^3 were euthanized. Dosing solutions were prepared fresh on each day of dosing. […] This was prepared by dissolving the lyophilized powder in sterile water.

SMILES	plasma IL-10 compared to vehicle-treated control group [1]	nuclear localization of inflammation-related CRM1 cargo proteins [2]	weight loss ([3]; Compound 2 15 mg/kg PO, significant vs vehicle, severe loss limited to a few animals)	antitumor effect ([3]; Compound 2 orally, 7.5 and 15 mg/kg MWF)
CC(C)(C)C(=O)NNC(=O)/C=C\n1cnc(-c2cc(C(F)(F)F)cc(C(F)(F)F)c2)n1 [Compound 1, (Z)-3-(3-(3,5-bis(trifluoromethyl)phenyl)-1H-1,2,4-triazol-1-yl)-N′-pivaloylacrylohydrazide]	reduced IL-10	demonstrate nuclear localization of the above cargos		
O=C(/C=C\n1cnc(-c2cc(C(F)(F)F)cc(C(F)(F)F)c2)n1)NNC(=O)CN1CCOCC1 [Compound 2, (Z)-3-(3-(3,5-bis(trifluoromethyl)phenyl)-1H-1,2,4-triazol-1-yl)-N′-(2-morpholinoacetyl)acrylohydrazide]			Some weight loss was observed	had antitumor effect at both 7.5 mg/kg and 15 mg/kg doses in a dose dependent manner
